Data as given in patent US9464093B2, “Substituted imidazo[4',5':4,5]cyclopenta[1,2-e]pyrrolo[1,2-a]pyrazines and oxazolo[4',5':4,5]cyclopenta[1,2-e]pyrrolo[1,2-a]pyrazines for treating brain cancer” (Mayo Foundation for Medical Education and Research, priority 2012, dated 2016).
Entries after “also recorded” stand apart in the source; their conditions may differ.

Assays:
Raji lymphoma cells [1] = assay: Intracerebral dissemination of lymphoma cells (CD20 IHC); assay type: in vivo, athymic mice
Text: Paraffin sections (10 μm thick) were fixed and mounted onto glass slides, blocked, and immunostained with antibody to CD20 to identify B lymphoma cells.
Murine brains harvested from the in-vivo experiments to assess the pre-clinical therapeutic activity of AA were studied by IHC. CD20-positive lymphoma cells were counted in the cerebral hemisphere contralateral to the tumor implantation side for dissemination in lateral, anterior, and posterior directions by ScanScope XT slide scanner and image analysis system (Aperio Spectrum, Vista, Calif.). One-way ANOVA was used to determine the statistical significance of the difference between the treated group and untreated control group.

NFkB signaling = assay: NFkB reporter assay in Raji cells; assay type: cell-based; settings: 100 nM and 500 nM for 48 hours
Text: 10^5 Raji cells were co-transfected overnight with a Cignal firefly luciferase-expressing NFkB reporter plasmid (NFkBr; SA Biosciences) together with a constitutively expressed Renilla luciferase reporter plasmid containing a CMV promoter. A promoterless vector (Neg-Luc) was co-transfected with the Renilla reporter for control. […] Data are presented as a ratio of firefly-to-Renilla luciferase luminescence.

osteopontin = assay: Osteopontin secretion ELISA in Raji cells; assay type: cell-based, human; settings: culture medium, four days
Procedure: 10^5 Raji lymphoma cells were seeded in 5 ml media in 6-well plates in triplicate and were grown for four days. Cells were pelleted and the media was collected for analysis. Duplicate four hundred microliters of media supernatant were assayed for osteopontin by ELISA using Quantikine human osteopontin ELISA kit (R&D Systems, Inc., Minneapolis, Minn.). Statistical analysis was performed using two-tailed Student's T-Test.

Raji lymphoma cells [2] = assay: Ex vivo murine brain slice invasion assay; assay type: cell-based; settings: cells pretreated with 100 nM for four days; day 5 post-incubation; vs DMSO
Procedure: The impact of Agelastatin A on the brain invasiveness of Raji B lymphoma cells was assessed ex vivo using a modified murine brain slice invasion assay. Briefly, these cells were first pre-transfected with luciferase (SP-DiI; Molecular Probes) just prior to invasion assays. Slice cultures of whole brains were produced from C57 mice. Two-month-old male C57BL/6J mice were sacrificed by CO2 inhalation. Mice brains were removed, placed into sterile ice-cold PBS, and then coronally sectioned with a 1 mm coronal brain matrix into 1 mm slices at +2.00 to −1.00 bregma. Brain slices were placed aseptically onto transwell (8 μm pore size) membranes in six-well dishes. Culture media (DMEM, 10% FCS, […], 100 U/ml penicillin, 100 μg/ml streptomycin, and 2.5 μg/ml amphotericin B) was added into each well to a point just below that which would cover the brain slice. […] Cells were allowed to attach to the brain surface for one hour before the media was adjusted to just cover the surface of the slice. After 5 days incubation, the extent of lymphoma cell invasion into the brain slice was quantitated by bioluminesence imaging (BLI) in both slice and media. Brain slices were fixed in 4% paraformaldehyde for CD20 staining to identify Raji cells, which had invaded the brain slices. […]

Raji lymphoma cells [3] = assay: Cell proliferation assay, Raji lymphoma cells (Example 3); assay type: cell-based; settings: 100, 500, or 1,000 nM; counted on the third day; vs vehicle
Procedure: Raji cells were purchased from American Tissue Culture (Manassas, Va.). […] Raji cells infected with lentivirus constructs were grown in selection media containing 2.5 μg/ml puromycin. For experiments, unless specified otherwise, all cells were switched back to maintenance media.
Two-tailed student T-test was used to analyze significant difference.

## CN1C(=O)N[C@H]2[C@@H]3NC(=O)c4ccc(Br)n4[C@@H]3C[C@]21O [AA, agelastatin A, reference compound]
Raji lymphoma cells [1]; T2 (2.5 mg/kg i.p.) and T3 (5 mg/kg i.p.) groups
  lateral dissemination of lymphoma cells: decreased lateral dissemination of lymphoma cells
Raji lymphoma cells [1]; all the treatment groups (1, 2.5, 5 mg/kg i.p.)
  lymphoma cell dissemination in the anterior and posterior direction: Dissemination of lymphoma cells was decreased
Raji lymphoma cells [1]; contralateral brain hemisphere, CD20 IHC
  dissemination of lymphoma cells in the brain: significantly decreased dissemination of lymphoma cells in the brain; also recorded: decreases the dissemination of Raji lymphoma cells inside the brain
NFkB signaling
  NFkB signaling in Raji cells (reporter assay): significantly downregulated NFkB signaling; also recorded: attenuates the NFkB signaling
osteopontin
  OPN secretion by Raji cells (ELISA): significantly decreased secretion of osteopontin; also recorded: decreases OPN secretion
Raji lymphoma cells [2]
  brain invasiveness of Raji lymphoma cells (ex vivo brain slice): significantly decreased and disabled the brain invasiveness; also recorded: decreases the brain invasiveness of Raji lymphoma cells; also recorded: No AA-treated lymphoma cells were found in the brain slice
Raji lymphoma cells [3]
  Raji lymphoma cell proliferation: significantly suppressed proliferation; also recorded: decreases Raji lymphoma cell proliferation
